Measured values taken from US10266506B2, “Compounds for use in imaging, diagnosing and/or treatment of diseases of the central nervous system or of tumors” (PIRAMAL IMAGING SA, priority 2007, dated 2019).
“Also recorded” adds a separate entry of the source.

Key:
MAO B = target: T1, MAO B (Homo sapiens, UniProt P27338); experiment: Autoradiography with [18F]compound 13 on human brain sections (Alzheimer's disease), blocking with MAO B inhibitors; assay type: binding
T1 construct: Autoradiography using [^18F]compound 13 on human brain slices from four brains from patients with diagnosis of Alzheimer's disease; from tissue; host or cells: human brain sections (Alzheimer's disease patients and normal controls), 18 µm cryosections
T1 sequence (P27338 1-520): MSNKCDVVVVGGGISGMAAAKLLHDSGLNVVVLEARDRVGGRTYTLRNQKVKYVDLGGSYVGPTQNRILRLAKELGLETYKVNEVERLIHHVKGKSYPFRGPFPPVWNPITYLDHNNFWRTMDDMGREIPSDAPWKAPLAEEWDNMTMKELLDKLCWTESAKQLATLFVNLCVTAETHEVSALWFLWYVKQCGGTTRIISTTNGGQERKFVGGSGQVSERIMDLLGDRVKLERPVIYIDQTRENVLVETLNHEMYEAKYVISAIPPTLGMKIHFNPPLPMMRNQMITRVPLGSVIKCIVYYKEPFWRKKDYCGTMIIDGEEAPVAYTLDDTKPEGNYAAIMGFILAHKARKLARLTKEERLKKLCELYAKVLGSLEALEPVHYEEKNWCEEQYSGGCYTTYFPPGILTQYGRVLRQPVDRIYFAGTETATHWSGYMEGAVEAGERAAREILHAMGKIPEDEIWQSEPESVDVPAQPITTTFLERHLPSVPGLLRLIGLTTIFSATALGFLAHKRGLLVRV
Protocol: (§1) Thereafter, the slides were removed and brought to room temperature. […] The sections were dipped two times into ice cold distilled water, dried at room temperature and exposed to PhosphorImanger plates (FUJI BAS 5000) over night. For detection of the specificity of the signals an excess (10 μM) of Deprenyl, Pargylin (both for MAO B) and Clorgyline (for MAO A), respectively, was used. After exposure, the sections were immunohistochemically stained using a standard protocol with an anti-GFAP antibody to detect reactive astrocytes. Amyloid β plaques were detected with BAY 949172 (Rowe C C et al. Lancet Neutol 2008; 7: 129-135) using the binding protocol as described above.
FIG. 1A Autoradiographic signal after exposure on the PhosphorImager plate.
FIG. 2A Autoradiographic signal after exposure on the PhosphorImager plate.

MAO A = target: T2, MAO A (Homo sapiens, UniProt P21397); experiment: Autoradiography with [18F]compound 13 on human brain sections, blocking with MAO A inhibitor clorgyline; assay type: binding; conditions: human AD brain slices; excess (10 μM) of Clorgyline
T2 construct: Autoradiography using [^18F]compound 13 on human brain slices from four brains from patients with diagnosis of Alzheimer's disease; from tissue; host or cells: human brain sections (Alzheimer's disease patients), 18 µm cryosections
T2 sequence (P21397 1-527): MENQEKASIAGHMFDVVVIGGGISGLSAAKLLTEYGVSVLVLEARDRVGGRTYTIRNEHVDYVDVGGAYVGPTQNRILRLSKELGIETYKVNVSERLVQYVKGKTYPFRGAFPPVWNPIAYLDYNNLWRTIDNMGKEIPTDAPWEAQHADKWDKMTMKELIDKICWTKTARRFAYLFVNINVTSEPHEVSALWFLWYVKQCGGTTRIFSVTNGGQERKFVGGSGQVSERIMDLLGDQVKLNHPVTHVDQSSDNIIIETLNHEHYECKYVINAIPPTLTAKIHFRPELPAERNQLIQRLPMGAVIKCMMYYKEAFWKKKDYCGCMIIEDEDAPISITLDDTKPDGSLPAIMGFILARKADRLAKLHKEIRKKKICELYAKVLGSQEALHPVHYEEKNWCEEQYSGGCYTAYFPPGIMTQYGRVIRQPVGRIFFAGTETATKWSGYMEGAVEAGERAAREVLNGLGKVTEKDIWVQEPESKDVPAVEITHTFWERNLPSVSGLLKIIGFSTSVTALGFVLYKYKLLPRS
Protocol: as §1
FIG. 2A Autoradiographic signal after exposure on the PhosphorImager plate. Note the black dots in the tissue slices corresponding to areas with amyloid β plaques (see examples in FIG. 3).

[1] = Biodistribution in NMRI mice (gamma counter); assay type: in vivo
Protocol: For each time point 3 mice have been used. The mice were injected each with 0.178 MBq[^18F]compound 13. After the respective time points the mice were sacrificed, the organs taken out and measured in a gamma counter. The results were decay corrected.

[2] = Plasma radioactivity and plasma metabolites after injection in a cynomolgus monkey; conditions: compared with [11C]Deprenyl (and compound 5)
From the text: Plasma radioactivity profiles have been monitored over time. […] In addition, metabolites occurring in plasma over time have been monitored (FIGS. 8 and 9) for both ligands.

[3] = PET brain uptake (time activity curves, SUV) in a cynomolgus monkey; assay type: in vivo; conditions: e.g. striatum
[4] = literature report; cited from earlier work

SMILES | correspondence of autoradiographic signal to reactive astrocytes (MAO B; human AD brain slice, GFAP immunoreactivity) | relation of autoradiographic signal to amyloid β plaque load (MAO B; human AD brain slices, amyloid detected with BAY 949172) | blocking of autoradiographic signal by MAO B inhibitors (specificity for MAO B) (MAO B; human AD brain slices, excess (10 μM) of Deprenyl or Pargylin) | blocking of autoradiographic signal by MAO A inhibitor clorgyline (MAO A) | brain uptake of radioactivity ([1]; 2 min p.i.) [% ID/g] | brain radioactivity ([1]; 30 min p.i.) [% ID/g] | brain radioactivity ([1]; after 4 hours) [% ID/g] | in vivo metabolic stability [2] | uptake and enrichment in specific regions, higher than [11C]Deprenyl [3] | degradation to metabolite (reported) [4]
C#CCN(C)[C@H](C[18F])Cc1ccccc1 [[^18F]compound 13, N-[(2S)-1-(^18F)fluoro-3-phenylpropan-2-yl]-N-methylprop-2-yn-1-amine] | correspondence of the autoradiographic signal to reactive astrocytes is demonstrated | the signal density and intensity corresponds with the amyloid β plaque load | the signals could be blocked with deprenyl and pargylin; also recorded: the signals could be completely blocked with deprenyl | not with clorgyline | 7.5±0.04 | 2.10±0.33 | 1.34±0.26 | improved metabolic stability; also recorded: more stable than [^11C]Deprenyl | about 10% | –
C#CCN(C)CCCCCC[18F] [compound 5] | – | – | – | – | – | – | – | – | – | degraded quickly towards a polar [^18F]-labelled metabolite
